The pest or weed control is how far the test organism was held down. High values mean a strong effect, low ones a weak effect. The term mortality denotes the percentage killed.

Structures are written as SMILES.

One experiment deals with cotton aphid (Aphis gossypii). Kind of experiment: Cotton aphid control test on cucumber (Test Example 32). Format: in vivo. Particulars: 144 h, 20 mL sprayed on cucumber, after 6 days. The method, then:
In the present Test Example, a water dilution containing a surfactant prepared by adjusting so as to contain a predetermined concentration (500 ppm) of the present compound was used as a test chemical solution. Thirty (30) heads of cotton aphid (Aphis gossypii) (including adults and larvae) were released on the leaves of cucumber grown in a polyethylene cup until the first true leaf was developed. Next day, 20 mL of the above test chemical solution was sprayed. After 6 days, the number of the surviving insects was counted and the control value was calculated by the following equation. Control value (%)={1−(Cb×Tai)/(Cai×Tb)}×100 wherein symbols in the equation represent the followings: Cb: Number of insects before spraying chemical solution in untreated area; Cai: Number of surviving insects in untreated area; Tb: Number of insects before spraying chemical solution in treated area; and Tai: Number of surviving insects in treated area.
For `COc1cc(-c2cccc(C)n2)ccc1OCc1c(C)cccc1-n1nnn(C)c1=O` [Present Compound 155], the pest or weed control at 500 ppm was at least 90%.

In turn, `CCOc1cccc(-n2nnn(C)c2=O)c1COc1ccc(-c2ccc(Cl)cn2)cc1C` [Present Compound 29] registered a pest or weed control at 500 ppm of at least 90%. Still for that read-out and setting: the figure for `C=C(C)c1cccc(-c2ccc(OCc3c(C)cccc3-n3nnn(C)c3=O)c(C)c2)n1` [Present Compound 148] is at least 90%; for `Cc1cc(-c2ccc(F)cn2)c(C)cc1OCc1c(C2CC2)cccc1-n1nnn(C)c1=O` [Present Compound 219] it is at least 90%. Still for that read-out and setting: with `CCc1cccc(-c2ccc(OCc3c(C)cccc3-n3nnn(C)c3=O)c(C(F)(F)F)c2)n1` [Present Compound 131] the figure was at least 90%; with `CCc1cccc(-c2ccc(OCc3c(OC)cccc3-n3nnn(C)c3=O)c(C)c2)n1` [Present Compound 45], at least 90%; with `CCOc1cccc(-n2nnn(C)c2=O)c1COc1ccc(-c2ccccn2)cc1C` [Present Compound 8], at least 90%.

`COc1ccncc1-c1cc(C)c(OCc2c(C)cccc2-n2nnn(C)c2=O)cc1C` [Present Compound 192] gave a pest or weed control at 500 ppm of at least 90%. The same measure, in the same setting: with `Cc1ccc(-c2ccc(OCc3c(C)cccc3-n3nnn(C)c3=O)c(C)c2)nn1` [Present Compound 234] the figure was at least 90%; with `Cc1cccc(-n2nnn(C)c2=O)c1COc1cc(Cl)c(-c2ccccn2)cc1Cl` [Present Compound 210], at least 90%. On the same count and under the same terms, the figure for `Cc1cc(-c2cccc(C(C)C)n2)ccc1OCc1c(C)cccc1-n1nnn(C)c1=O` [Present Compound 149] is at least 90%; for `CCc1cccc(-n2nnn(C)c2=O)c1COc1ccc(-c2nccc(C)n2)cc1C(F)(F)F` [Present Compound 138] it is at least 90%. For the compound `Cc1ccnc(-c2ccc(OCc3ccccc3-n3nnn(C)c3=O)c(C(F)(F)F)c2)n1` [Present Compound 137], the pest or weed control at 500 ppm is at least 90%. The same measure, in the same setting: the figure for `Cc1cccc(-c2ccc(OCc3c(C)cccc3-n3nnn(C)c3=O)c(C(F)(F)F)c2)n1` [Present Compound 59] is at least 90%. On the same count and under the same terms, with `Cc1cc(-c2ncc(F)cn2)ccc1OCc1c(C)cccc1-n1nnn(C)c1=O` [Present Compound 236] the figure was at least 90%; with `Cc1cc(-c2cccc(C#N)n2)ccc1OCc1c(C2CC2)cccc1-n1nnn(C)c1=O` [Present Compound 116], at least 90%. `CCc1cccc(-c2ccc(OCc3ccccc3-n3nnn(C)c3=O)c(C(F)(F)F)c2)n1` [Present Compound 130] displayed a pest or weed control at 500 ppm of at least 90%. On the same count and under the same terms, with `Cc1ccnc(-c2ccc(OCc3c(Cl)cccc3-n3nnn(C)c3=O)c(C(F)(F)F)c2)n1` [Present Compound 134] the figure was at least 90%; with `CCOc1cccc(-n2nnn(C)c2=O)c1COc1ccc(-c2cccc(Cl)n2)cc1C` [Present Compound 41], at least 90%. For `Cc1cccc(-c2ccc(OCc3ccccc3-n3nnn(C)c3=O)c(C(F)(F)F)c2)n1` [Present Compound 127], the pest or weed control at 500 ppm was at least 90%. Same read-out and setting: the figure for `Cc1cccc(-c2ccc(OCc3c(C)cccc3-n3nnn(C)c3=O)c(C#N)c2)n1` [Present Compound 156] is at least 90%; for `Cc1cc(-c2ccc(F)cn2)c(F)cc1OCc1c(C)cccc1-n1nnn(C)c1=O` [Present Compound 195] it is at least 90%. On the same count and under the same terms, with `Cc1ccnc(-c2ccc(OCc3c(C)cccc3-n3nnn(C)c3=O)c(C)c2)c1` [Present Compound 20] the figure was at least 90%.

`Cc1cc(-c2ncc(F)cn2)c(C)cc1OCc1c(C)cccc1-n1nnn(C)c1=O` [Present Compound 238] showed a pest or weed control at 500 ppm of at least 90%.

Another experiment has as its system barley net blotch fungus (Pyrenophora teres). Nature of the experiment: Barley net blotch control test, foliar spray on barley (Test Examples 4, 16, 17, 18). It counts as in vivo. Conditions: 12.5 ppm foliar spray, barley NISHINOHOSHI, inoculated after 2 days.
In the case of `CCOc1cccc(-n2nnn(C)c2=O)c1COc1ccc(-c2cccc(C)n2)cc1C` [Present Compound 53], the “area of lesion spots relative to that on an untreated plant” value (“area of lesion spots relative to that” below) is at most 30%.

In a further experiment the test system is wheat leaf blotch fungus (Septoria tritici). Nature of the experiment: Wheat leaf blotch control test, spray before inoculation (Test Examples 6, 9, 10, Comparative Test Example). Format: in vivo. Particulars: 500 ppm foliar spray, wheat APOGEE, inoculated after 4 days.
Turning to `Cn1nnn(-c2ccccc2COc2ccc(-c3ccccn3)cc2)c1=O` [Present Compound 223], the “area of lesion spots relative to that” value is at most 30%.

In the case of `Cn1nnn(-c2ccccc2COc2ccc(-c3ccccc3)cc2)c1=O` [1-methyl-4-[2-(4-phenyl-phenoxymethyl)-phenyl]-1,4-dihydrotetrazol-5-one, reference compound], the “area of lesion spots relative to that” value is at least 70%.

The test system of the next experiment is common house mosquito (Culex pipiens pallens). Nature of the experiment: Common house mosquito larvae mortality test (Test Example 30). It counts as in vivo. Conditions: 192 h, 3.5 ppm active ingredient in water, last instar larvae, after 8 days. The procedure:
(§1) In the present Test Example, a water dilution containing a surfactant prepared by adjusting so as to contain a predetermined concentration (500 ppm) of the present compound was used as a test chemical solution.
The above test chemical solution (0.7 mL) was added to 100 mL of deionized water to adjust the concentration of an active ingredient to 3.5 ppm. Twenty (20) heads of last instar larvae of common house mosquito (Culex pipiens pallens) were released in the solution and the number of dead insects was counted after 8 days.
Mortality was determined by the following equation. Mortality (%)=(number of dead insects/number of test insects)×100
Turning to `Cc1cc(-c2ncc(Cl)cn2)c(F)cc1OCc1c(C)cccc1-n1nnn(C)c1=O` [Present Compound 242], the mortality at 3.5 ppm came to 100%. As for `CCc1cccc(-n2nnn(C)c2=O)c1COc1ccc(-c2nccc(C)n2)cc1C` [Present Compound 93], the mortality at 3.5 ppm turned out to be 100%.

The compound `CCc1cccc(-n2nnn(C)c2=O)c1COc1cc(C)c(-c2ccc(F)cn2)cc1C` [Present Compound 215] had a mortality at 3.5 ppm of 100%. For `Cc1cc(-c2ncc(F)cn2)ccc1OCc1c(C)cccc1-n1nnn(C)c1=O` [Present Compound 236], the mortality at 3.5 ppm was 100%. In turn, `Cc1cc(-c2cccc(C#N)n2)ccc1OCc1c(C2CC2)cccc1-n1nnn(C)c1=O` [Present Compound 116] registered a mortality at 3.5 ppm of 100%.

Another experiment relates to cabbage moth (Plutella xylostella). Nature of the experiment: Cabbage moth larvae mortality test on cabbage (Test Example 31). It counts as in vivo. Conditions: 120 h, 500 ppm spray on cabbage 20 mL/cup, third instar larvae, 25° C., after 5 days. The method, then:
as §1
Cabbage was planted in each of polyethylene cups and grown until the third true leaf or the fourth true leaf was developed. The above test chemical solution was sprayed over the cabbage (Brassicae oleracea) at a rate of 20 mL/cup. After drying the chemical solution, the polyethylene cup having a volume of 400 mL was covered. Ten (10) heads of third instar larvae of cabbage moth (Plutella xylostella) were released in the cup and the cup was covered with a Tetron fabric. The cup was held at 25° C. and, after 5 days, the number of the surviving insects was counted and the mortality of insects was calculated by the following equation.
Mortality (%)=(number of dead insects/number of test insects)×100
The compound `Cc1ccnc(-c2ccc(OCc3c(C4CC4)cccc3-n3nnn(C)c3=O)c(C)c2)n1` [Present Compound 92] registered a mortality at 500 ppm of at least 90%. The same measure, in the same setting: with `Cc1cccc(-c2ccc(OCc3c(C)cccc3-n3nnn(C)c3=O)c(C)c2)n1` [Present Compound 48] the figure was at least 90%.

For the origin of these results see US9888688B2, “Tetrazolinone compounds and applications thereof” (Sumitomo Chemical Company, Limited, priority 2013, dated 2018).
